From patent publication US20250057793A1, “BENZOIC ACID SALTS FOR TREATMENT OF NERVOUS SYSTEM INJURIES AND DISORDERS” (The United States Government as represented by the …, priority 2021, published 2025)

Tested on: cuprizone-intoxicated mice
Assay: Remyelination of corpus callosum in cuprizone-intoxicated mouse model of demyelination
Assay type: in vivo
Settings: cuprizone diet 5 weeks, then NaB 50 mg/kg body wt/d oral gavage 3 weeks
Experimental: FIGS. 16A-16C: Oral NaB stimulates the maturation of OPCs in vivo in the corpus callosum of cuprizone-intoxicated mice. C57/BL6 mice (8-10 week old; male) were fed cuprizone-containing diet (Envigo) for 5 weeks followed by treatment with NaB (50 mg/kg body wt/d) orally via gavage. FIG. 16A) After 3 weeks of treatment with NaB, corpus callosum sections were double-labeled for PLP and A2B5. Mean fluorescence intensity (MFI) of A2B5 (FIG. 16B) and PLP (FIG. 16C) were quantified from one section (two images per section) of each of 5 mice group. Results are mean+SEM of 5 mice per group. ***p<0.001; **p<0.01.
FIGS. 17A-17H: Effect of NaB on myelination in vivo in the corpus callosum of cuprizone-intoxicated mice. C57/BL6 mice (8-10 week old; male; n=5) were fed cuprizone-containing diet (Envigo) for 5 weeks followed by treatment with NaB (50 mg/kg body wt/d) orally via gavage. After 3 weeks of treatment with NaB, corpus callosum sections were immunostained MBP (FIG. 17A) and PLP (FIG. 17B). Mean fluorescence intensity (MFI) of MBP (FIG. 17C) and PLP (FIG. 17D) were quantified from one section (two images per section) of each of 5 mice group. Results are mean+SEM of 5 mice per group. **p<0.01; *p<0.05. FIG. 17E) Corpus callosum sections were stained for luxol fast blue (LFB). FIG. 17F) For electron microscopic studies, 50 μm thick sagittal sections were prepared and stained followed by analysis of corpus callosum sections for different parameters to evaluate axonal ultrastructures. FIG. 17G) G score was calculated in 75 axons per group for all three groups. FIG. 17H) Percentage of myelinated axons was calculated in 7 randomly selected corpus callosum sections of 5 mice per group. ***p<0.001.

O=C([O-])c1ccccc1.[Na+] [NaB, Sodium benzoate]
MBP in corpus callosum: increased | level of A2B5 in corpus callosum: decreased | level of PLP in corpus callosum: increased | maturation of OPCs in vivo in the corpus callosum: stimulates | remyelination in the corpus callosum: can promote remyelination
